Assays:
Assay type in all cases: in vivo, man
[1] = tested on: volunteers with telogenic defluvium; assay: Clinical study: haematochemical analysis; settings: oral, one capsule a day for 60 days
Method: (§1) This controlled, randomized double-blind study was performed according to the present invention by means of the protocols below.
(§2) Sixty volunteers of both sexes and ranging between 18 and 60 years old were divided into three groups of 20 individuals each, all having the same level of pathology, i.e. telogenic defluvium existing for at least 2 months.
(§3) Some of these individuals were treated for 60 days with one capsule a day of a composition of the invention, according to the following scheme:
(§4) Group 1: 20 individuals treated with a composition of the invention containing spermidine alone (0.50 mg per capsule).
(§5) Group 2: 20 individuals treated with a composition of the invention according to Example 1 described later (spermidine 0.50 mg per capsule). […]
(§6) The parameters evaluated were the following: • A) General dermatological visit. • B) Microscopic evaluation of the shaft of the hairs (diameter and possible structural changes in the hair). • C) Trichogram, i.e. evaluation of the bulbs in the anagenic (growth) phase, catagenic (involutive stasis) phase, telogenic (pathological precocious hair loss) phase and exogenic (physiological loss of hairs since they are replaced with new hairs). • D) Haematochemical analysis. • E) Pull test (mechanical tensile strength of the hair). • F) Wash test (count of the hairs lost after washing with shampoo). • G) Possible side effects. […]

[2] = tested on: volunteers with telogenic defluvium; assay: Clinical study: wash test (count and phase of hairs lost after shampoo)
Method: as §1, §2, §3, §4
(§7) Group 2: 20 individuals treated with a composition of the invention according to Example 1 described later (spermidine 0.50 mg per capsule).
(§8) Group 3: 20 individuals treated with a placebo, in capsules.
(§9) The parameters evaluated were the following: • A) General dermatological visit. • B) Microscopic evaluation of the shaft of the hairs (diameter and possible structural changes in the hair). • C) Trichogram, i.e. evaluation of the bulbs in the anagenic (growth) phase, catagenic (involutive stasis) phase, telogenic (pathological precocious hair loss) phase and exogenic (physiological loss of hairs since they are replaced with new hairs). • D) Haematochemical analysis. • E) Pull test (mechanical tensile strength of the hair). • F) Wash test (count of the hairs lost after washing with shampoo). • G) Possible side effects.
(§10) These parameters were evaluated at time T0 (before the start of the treatment); at time T1 (at the end of the 60 days of treatment); and finally at time T2 (30 days after stopping the administration).
This test makes it possible not only to quantify the number of hairs lost after shampooing, but also, by means of a suitable microscopic analysis, to evaluate the phase of the cycle in which the bulb was found when the hair fell out: pathological loss (telogenic) or phase of physiological exchange (exogenic).
The test results are given in the graph of FIG. 3 in the attached drawings. […]

[3] = tested on: volunteers with telogenic defluvium; assay: Clinical study: general dermatological visit; settings: oral, one capsule a day (spermidine 0.50 mg) for 60 days; compared with placebo group 3
Method: as §1, §2, §3, §4, §5, §6

[4] = tested on: volunteers with telogenic defluvium; assay: Clinical study: trichogram (evaluation of the hair bulbs by phase)
Method: as §1, §2, §3, §4, §7, §8, §9, §10
In this regard, reference is made to the diagrams of FIGS. 1 and 2 in the attached drawings. These show the trichogram of the anagenic and telogenic phases at times T0 (before the start of the treatment); at time T1 (at the end of the 60 days of treatment); and finally at time T2 (30 days after stopping the administration) for the individuals of the three groups, 1 (grey column), 2 (black column) and 3 (pale column). The percentage of hairs in the anagenic phase (FIG. 1) and in the telogenic phase (FIG. 2) for the treated individuals belonging to the three groups under consideration is shown on the y-axis, and the said times T are shown on the x-axis, under which are tabulated the said percentages found.

[5] = tested on: volunteers with telogenic defluvium; assay: Clinical study: pull test (mechanical tensile strength of the hair); settings: oral, one capsule a day for 60 days; placebo virtually unchanged
Method: as §1, §2, §3, §4, §5, §6

[6] = tested on: volunteers with telogenic defluvium; assay: Clinical study: microscopic evaluation of the hair shaft; settings: oral, one capsule a day (spermidine 0.50 mg) for 60 days; placebo virtually unchanged
Method: as §1, §2, §3, §4, §5, §6

[7] = oral, one capsule a day for 60 days, placebo not significantly changed

haematochemical analyses [1]: within the norm
SMILES: NCCCCNCCCN [spermidine, N-(3-aminopropyl)tetramethylenediamine]
lost hairs in the telogenic phase (pathological loss) ([2]; bulbs of hairs lost in the wash test, placebo more than 90%): 63% | lost hairs in the exogenic phase (physiological loss) ([2]; bulbs of hairs lost in the wash test, placebo only 3%): 33% | number of hairs lost in the wash test ([2]; oral, one capsule a day for 60 days, placebo unchanged): decreases significantly | hair loss at dermatological visit [3]: appreciable and significant reduction in the hair loss | structure of the hair shaft at dermatological visit [3]: improvement in the structure of the shaft | increase in the anagenic phase at T1 ([4]; T1 = end of the 60 days of treatment, relative to T0, placebo 2.7%): 8.1% | decrease in the telogenic phase at T1 ([4]; T1 = end of the 60 days of treatment, placebo increased by about 1.88%): 9.1% | decrease in the telogenic phase at T2 ([4]; T2 = 30 days after stopping the 60-day administration, placebo 4.16%): 6.76% | increase in the anagenic phase at T2 relative to T0 ([4]; T2 = 30 days after stopping the 60-day administration, placebo 7.79%): 17.2% | number of bulbs in the anagenic phase (in words) [4, 7]: increases significantly | telogenic phase (in words) [4, 7]: decreases significantly | mechanical tensile strength of the hair (pull test) [5]: increased significantly | diameter of the hair shaft [6]: increases quite substantially
